Results as given in US9877927B2, “Inhibitor of odor caused by Furaneol” (Kao Corporation, priority 2013, dated 2018).

Key:
olfactory receptor OR5K1 [1] = molecular target: T1, olfactory receptor OR5K1 (Homo sapiens, UniProt Q8NHB7); test: Antagonistic activity against the response of OR5K1 to Furaneol (luciferase assay); type: cell-based; details: Furaneol 3 mM, test substance 100 μM, HEK293 cells expressing OR5K1; vs Furaneol alone; read-out: Rate of inhibition of the response of OR5K1 to Furaneol
T1 construct: expressed in transfected cells; host or cells: HEK293
T1 sequence (Q8NHB7 1-308): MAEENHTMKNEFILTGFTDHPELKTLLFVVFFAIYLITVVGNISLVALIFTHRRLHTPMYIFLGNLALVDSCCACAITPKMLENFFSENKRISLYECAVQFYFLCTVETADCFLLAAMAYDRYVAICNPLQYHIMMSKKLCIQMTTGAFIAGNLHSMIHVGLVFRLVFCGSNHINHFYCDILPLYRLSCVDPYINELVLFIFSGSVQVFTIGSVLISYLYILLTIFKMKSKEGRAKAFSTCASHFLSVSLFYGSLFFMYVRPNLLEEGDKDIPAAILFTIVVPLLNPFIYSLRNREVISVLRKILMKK
Experimental: Furaneol (3 mM) and each test substance (100 μM) were added to HEK293 cells allowed to express the olfactory receptor OR5K1 by the same procedures as in Example 2. The response of the olfactory receptor was measured to evaluate change in receptor response caused by the addition of the test substance.
The rate of inhibition of the receptor response by the test substance was calculated as follows: firefly luciferase-derived luminescence intensity (Y) in the olfactory receptor OR5K1-expressing cells without Furaneol stimulation was subtracted from luminescence intensity (X) induced by stimulation with Furaneol alone to determine receptor activity (X−Y) based on the stimulation with Furaneol alone. Likewise, the luminescence intensity (Y) in the cells without Furaneol stimulation was subtracted from luminescence intensity (Z) induced by stimulation with the mixture of Furaneol and the test substance to determine receptor activity (Z−Y) in the presence of the test substance. The rate of reduction in the receptor activity (Z−Y) in the presence of the test substance with respect to the receptor activity (X−Y) based on the stimulation with Furaneol alone was calculated according to an expression shown below to determine the rate of inhibition of the receptor response by the test substance. In this assay, a plurality of independent duplicate experiments were performed. An average of the experiments in each run was obtained. Rate of inhibition (%)={1−(Z−Y)/(X−Y)}×100

olfactory receptor OR5K1 [2] = molecular target: T1, olfactory receptor OR5K1; test: Luciferase reporter gene assay, response of olfactory receptor to Furaneol; type: cell-based
From the text: On the basis of sequence information registered in GenBank, each human olfactory receptor gene was cloned by PCR with Human Genomic DNA Female (G1521: Promega Corp.) as a template. Each gene thus amplified by PCR was inserted into a pENTR vector (Invitrogen Corp.) according to the manual. A NotI-AscI site present on the pENTR vector was recombined into a NotI-AscI site prepared downstream of a Flag-Rho tag sequence on a pME18S vector.
A gene (GenBank GI: 50234917) encoding a human receptor transporting protein, RTP1S was inserted into the EcoRI-XhoI site of the pME18S vector.
HEK293 cells expressing each of 400 types of human olfactory receptors were prepared. […]
The olfactory receptors expressed on the HEK293 cells are conjugated with intracellular Gas to activate adenylate cyclase, thereby increasing intracellular cAMP levels. In this study, their responses to Furaneol were measured using luciferase reporter gene assay which involved monitoring increase in intracellular cAMP level as luminescence intensity derived from a firefly luciferase gene (fluc2P-CRE-hygro). […]
A medium was removed from the cultures prepared in the preceding paragraph 3). […] The luciferase activity was measured using Dual-Glo™ luciferase assay system (Promega Corp.) according to the instruction manual of the product. […]

Concentration dependence of OR5K1 response to Furaneol (olfactory receptor OR5K1 [2]; Furaneol 0, 3, 10, 30, 100, 300, 1000, 3000 μM, OR5K1 with human RTP1S in HEK293 cells) | Structure (SMILES) | inhibition at 100 µM (olfactory receptor OR5K1 [1]) [%] | Response of olfactory receptors to Furaneol (fold increase in luminescence) (olfactory receptor OR5K1 [2]; Furaneol 3 mM, 400 types of human olfactory receptors in HEK293 cells)
 | CC(C)=CCCC(C)=CC=O [Citral] | ≥ 75 | 
 | CC(=O)c1cc2c(cc1C)C(C)(C)C(C)CC2(C)C [Tonalid(R), 1-(5,6,7,8-tetrahydro-3,5,5,6,8,8-hexamethyl-2-naphthalenyl)-ethanone] | ≥ 75 | 
concentration-dependent response | CC1=C(O)C(=O)C(C)O1 (centres unmarked) [Furaneol, 2,5-dimethyl-4-hydroxy-3(2H)-furanone] |  | only the olfactory receptor OR5K1 exhibited a response
 | CC(=O)O[C@]1(C)CC[C@@]23C[C@@H]1C(C)(C)[C@@H]2CC[C@H]3C [Cedryl acetate] | ≥ 50 | 
